Measurements published in patent US20080317863A1, “Pharmaceutical Compositions Useful in the Transmucosal Administration of Drugs” (priority 2005, published 2008).

Experiments:
[1] = Surface area by permeametry; assay type: physicochemical; details: permeametry with Blaine apparatus; mean of three, SD in parentheses
Method: (§1) Particle sizes are shown as median values by weight as measured by laser diffraction analysis (Sympatec Helos […], Germany). […] Surface areas were measured by steady state […] (Johansson et al, Int. […] The results are shown as the mean value from three measurements. The standard deviation is given in parentheses.

[2] = Particle size by laser diffraction analysis; assay type: physicochemical; details: median by weight, 10% and 90% undersize limits in parentheses
Method: as §1

O=C([O-])c1ccccc1O.[Na+] [Sodium salicylate, sodium salicylate]
Surface Area [1]: 1.77 (0.13) m^2/g
Particle Size [2]: 3.17 (0.8, 10.8) μm
